In US20250249001A1, “METHODS OF TREATING SUBSTANCE USE DISORDER WITH 4-(3-CYANOPHENYL)-6-PYRIDINYLPYRIMIDINE MGLU5 NEGATIVE ALLOSTERIC MODULATORS” (Tempero Bio, Inc., priority 2022, published 2025):

Experiments:
[1] = test system: voluntary home-cage alcohol drinking by Wistar rats; assay: Home-cage two-bottle choice alcohol drinking, acute treatment; type: in vivo
Procedure: Animals: Male Wistar rats (Charles River Laboratories, INC) were used in these studies. Rat housing and testing was conducted at the University of North Carolina at Chapel Hill (UNC-CH) School of Medicine in a state-of-the-art rodent vivarium approved by the Association for Assessment and Accreditation of Laboratory Animal Care International (AAALAC). Rat health was monitored daily by study investigators and veterinarians in the Division of Comparative Medicine UNC. All experimental procedures were carried out in accordance with the NIH Guide to Care and Use of Laboratory Animals (Committee for the Update of the Guide for the Care and Use of Laboratory Animals, 2011) and institutional guidelines.
Rats were housed individually in standard Plexiglas cages with standard rodent food and water available ad libitum. Upon arrival from the vendor, rats were given 7 days to acclimate to the vivarium during which they were weighed and handled by an investigator each day to monitor general health and habituate them to human contact. Rats were then weighed each day within 1-h of experimental procedures to calculate drug dosages relative to body weight. […] The colony was maintained at […] on a 12-hour light/dark cycle, with the lights on from 10 AM-10 PM. All behavioral experiments were conducted during the light portion of the light cycle.
Home-cage alcohol drinking method. Oral alcohol and water intake were examined using a two-bottle choice protocol, which is standard in the field and commonly used in our laboratory. Male Wistar rats (n=12) were first adapted to drinking from a 50 ml conical tube fitted with a standard stainless-steel ball bearing sipper tube that limits spillage. Then, two bottles were place on the cage daily. One bottle contained an alcohol solution and the other contained water. Bottles containing fresh solutions were weighed daily before and after a 24 hr access period. After drug treatment, bottles were weighed after 1 hr and 24 hrs of access. Each week, rats had 4-5 days of sweetened alcohol and water available and the remaining days only water.
Briefly, rats were first exposed to alcohol (10% v/v)+sucrose (5% w/v). versus water in the two bottles. Then, over a period of 6-weeks, the concentrations of alcohol and sucrose were gradually adjusted to alcohol (8% v/v)+sucrose (2% w/v) to achieve intake of pharmacologically relevant doses of alcohol. Rats were maintained at this concentration for the duration of the experiment for both acute (3.1.a) and chronic (3.1.b) home-cage drinking studies. Use of sweetened alcohol solutions in preclinical research provides face validity to the binge-intoxication stage of alcohol addiction in humans where sweeteners are commonly added to alcohol.
Compound 1 treatment. After establishing baseline intake of sweetened alcohol and water, rats were habituated to i.p. injections. All rats (N=12) were administered 3 habituation injections of vehicle (10% w/v kolliphor in BCD (10%)) prior to the Compound 1 dose response curve and alcohol intake was measured. Then, the Compound 1 dose response curve was conducted with dose order randomized according to a modified Latin-Square design. Rats were given a minimum of 1-2 days between injections to ensure normal drinking was re-established in absence of drug administration. Each dose of Compound 1 (0-10 mg/kg) was administered via i.p. injection and rats were placed back in the home-cage for 1 hr prior to the return of sweetened alcohol and water. Alcohol intake was measured after 1-h and 24-hrs of access in grams by weighing the drinking bottles. Data were excluded from 1 rat that emptied both bottles fully each day without drinking the solutions; thus, results are presented for a final group of N=11 rats.
Efficacy comparisons to MPEP and Naltrexone. […]

[2] = test system: operant alcohol self-administration in Wistar rats; assay: Operant alcohol self-administration (FR-1), acute treatment; type: in vivo; settings: 3 mg/kg IP, 1-h pretreatment
From the text: Twelve operant conditioning chambers designed for rats (30.5 cm×24.1 cm×21.0 cm; Med Associates, Georgia, VT) were located within sound-attenuating cubicles in a devoted room to limit extraneous potential impact by extraneous environmental variables. Each cubicle was equipped with an exhaust fan that provided ventilation and masked external sounds. The chambers were electronically interfaced to a Microsoft Windows based computer that was programmed using investigator developed software to control sessions and record number of lever press responses at 100-ms intervals.
The right wall of each chamber contained a liquid receptacle and a response lever (Med Associates) that was termed the active lever. Lever press responses on the active lever activated a syringe pump (PHM-100, Med Associates) that delivered 0.1 ml of alcohol solution (ethanol 8% v/v+sucrose 2% w/v) into the receptacle over a 1.66-s period. Head entries into the liquid receptacle were recorded when an infrared photo beam was broken. A stimulus light located above the response lever was illuminated during pump activation. Lever presses during reinforcer delivery were recorded but produced no programmed consequence. […] Behavior on this lever serves as a control for motor disruptions and other nonspecific effects of test compounds. […]
Testing the efficacy of Compound 1 to reduce the reinforcing, or rewarding, effects of alcohol. Following establishment of stable baseline self-administration behavior, effects of pre-session treatment with the novel mGluR5 negative allosteric modulator Compound 1 (0, 0.3, 1, 3, and 10 mg/kg, IP) were evaluated on operant alcohol self-administration behavior (n=12 rats). […] Parameters of operant performance were measured, including total lever press responses, number of headpokes into the liquid receptacle, and rate of operant responding, which is a direct measure of positive reinforcement function. […]

[3] = test system: cocaine-induced CPP in male SD rats; type: in vivo, Sprague Dawley rats; settings: cocaine 10 mg/kg IP on days 3, 5, 7, 9; day 10 bias test
Procedure: Animals: Male Sprague Dawley rats (Envigo, IN, 275-299 g) were group housed upon arrival (2 per cage). All rats were examined and handled to assure adequate health and suitability. During the study, a 12/12 light/dark cycle was maintained (lights switched on at 7:00 am). The room temperature was maintained between […] and 23° C. with a relative humidity maintained around 50%. Chow (LabDiet #5001) and water were provided ad libitum for the duration of the study. The test was performed during the animal's light cycle phase.
Cocaine (10 mg/kg) was dissolved in saline and injected IP at a dose volume of 1 ml/kg. Cocaine was administered on training days 3, 5, 7 and 9 immediately prior to training.
3-((2-Methyl-4-thiazolyl)ethynyl)pyridine (MTEP, 3 mg/kg), was dissolved in saline and injected IP on day 10 (bias test) at a dose volume of 1 ml/kg 30 minutes prior to testing.
Compound 1 (1, 3 and 10 mg/kg) was formulated in 10% Solutol HS15 and 90% (10% aqueous 2-hydroxypropyl-β-cyclodextrin) and injected IP on day 10 (bias test) at a dose volume of 2 ml/kg. Compound 1 was administered 30 minutes prior to testing.
The chamber used in this study contained two compartments [(60 cm (L)×40 cm (W)×24 cm (H)]. The compartment used for each animal and drug pairing was assigned and counterbalanced in advance and adjusted as necessary in the rebalancing procedure after day 1 (see details below). Within the chamber, visual and physical features were used to create the two distinct compartments. For example, one compartment may have a flat plastic floor with white stripes and the other may have a textured floor and black stripes. The chambers were cleaned with 70% alcohol in between runs.
Testing sessions were recorded on days 1 and 10 to determine time spent (seconds) in each chamber.
Day 1 Pre-conditioning/Habituation: Animals are allowed to explore the entire testing chamber freely for 20 min. Animals that display a strong preference for one compartment (>75% time spent in one compartment) are excluded.
Rebalancing Procedure: Animals are rebalanced following day 1 scoring if the difference between groups for time spent in one compartment is greater than 15%.
Days 2-9 Conditioning: All animals are treated with saline on days 2, 4, 6, and 8 and with cocaine or saline on days 3, 5, 7, and 9 depending on their assigned group. Animals are confined to their assigned compartment (saline- or cocaine-paired compartment) for 20 minutes following dosing.
Day 10 Post-conditioning bias test: Animals are dosed once with either saline, MTEP or Compound 1 (1, 3 and 10 mg/kg) according to their assigned. Following dosing, animals are allowed to explore the testing chamber freely for 20 minutes with the compartment dividing door open. Their activity exploring the chamber is recorded for analysis.
Statistical Analysis: Statistical analysis was conducted using GraphPad Prism 9. Scorers blinded to the treatment groups scored the amount of time each animal spent exploring each chamber on days 1 and 10. For bias test data, a one-way analysis of variance (ANOVA) followed by Dunnett's post hoc test was used. Significance was set at p<0.05 and values exceeding two standard deviations of the mean were considered statistical outliers and were excluded from the analysis. Additionally, if an animal spent >85% or <15% of the time in one compartment even without any obvious signs of sedation or locomotor dysfunction, they were excluded from the analysis.

Row | SMILES | H2O intake after 24-hr access ([1]; 3 mg/kg i.p., Compound 1 or comparison compounds) | water intake after 1-hr access ([1]; Compound 1 0-10 mg/kg, or Compound 1, MPEP, Naltrexone 3 mg/kg i.p.) | alcohol intake at the 24-hr measurement interval, comparison of equivalent doses ([1]; each drug 3 mg/kg i.p. acute) | alcohol drinking at 1-hr of access vs vehicle control, positive control comparison ([1]; each drug 3 mg/kg i.p. acute, N=11) | EtOH reinforced responses vs vehicle, multiple comparisons [2] | Percent time in compound-paired compartment, Mean Diff., Cocaine - Saline vs. Saline - Saline [3] [%] | Preference Scores (time difference drug-paired minus saline-paired), Mean Diff., Cocaine - Saline vs. Saline - Saline [3] [s]
1 | O=C1CC[C@@]2(O)[C@H]3Cc4ccc(O)c5c4[C@@]2(CCN3CC2CC2)[C@H]1O5 [Naltrexone, reference compound] | no effect | did not reach statistical significance | only Compound 1 (3 mg/kg) maintained efficacy | significantly decreased alcohol drinking | reduced EtOH reinforced responses |  | 
2 | COC(=O)[C@H]1[C@@H](OC(=O)c2ccccc2)C[C@@H]2CC[C@H]1N2C [Cocaine] |  |  |  |  |  | 13.86 | 332.9
